Data on 17 molecules can be found in patent US10330673B2, “Fluorescent chemical sensor for biological amines” (The Curators of the University of Missouri, priority 2013, dated 2019).

The structures appear in SMILES notation.

The conditions of data set [1]: sensor of U.S. Pat. No. 7,977,120 B2; quenched by catechol group; cited from earlier work.
Data set [2] is described as follows: Fluorescence titration of sensor with norepinephrine. The class given is binding. As to conditions: Table 2, analyte norepinephrine; for Ka: pH 5.0, 37° C. The procedure: (§1) Fluorescence spectra were recorded on a Shimadzu RF-5301 PC spectrofluorometer at 37° C. A 1 mg/mL stock solution of I-2 in DMSO was prepared. A stock solution of I-2 in buffer (1×10^−5 M, 25 mM HEPES, 50 mM Na2S2O3, pH=5.0) was prepared. Norepinephrine, dopamine, epinephrine, and glutamate stock solutions were prepared by separately dissolving the analytes at the concentration to be used in the titration with the buffered stock solution of I-2 (thus avoiding dilution of I-2 during the experiment). I-2 was titrated with aliquots of analyte solution. The sensor was excited at 488 nm with slit widths of 5 nm.
(§2) Fluorescence spectra were recorded on a Shimadzu RF-5301 PC spectrofluorometer at 37° C. A separate 1 mg/mL stock solution of each coumarin-3-aldehyde derivative in DMSO was prepared. An aqueous stock solution of each derivative (10 μM) in buffer (25 mM HEPES, 50 mM Na2S2O3, pH=5.0) was prepared. Norepinephrine, dopamine, glutamate, and epinephrine stock solutions were prepared by separately dissolving the solid analytes at the concentration to be used in the titration with the buffered stock solutions described above and thus, avoiding dilution of the sensor during the experiment. The benzene-based NS521 derivatives were excited at 488 nm. The thiophene-based derivatives were excited at 515 nm.

Data set [3] is described as follows: Fluorescence titration of sensor with dopamine. It counts as binding. The conditions noted are these: Table 2, analyte dopamine; for Ka: pH 5.0, 37° C. The procedure:
as §1, §2

The nature of data set [4]: Fluorescence titration of sensor with glutamate. The class given is binding. The conditions noted are these: for F.E. / Ka: Table 2, analyte glutamate; for Ka: pH 5.0, 37° C. The procedure:
as §1, §2

A short description of data set [5]: Solubility in buffer for spectroscopic studies. As to conditions: 25 mM HEPES, 50 mM Na2S2O3, pH 5.0; DMSO cosolvent required. The class given is physicochemical. The procedure: Steady-state fluorescence spectroscopic studies were performed using a Horiba Scientific Fluorolog-3 Model FL3C-111 spectrofluorometer and data was collected and analyzed using HJY FluorEssence™ 3.5.1.20 software package. UV-visible spectra were obtained on a Varian Cary 1E UV-visible spectrophotometer. A stock solution of each benzene- or thiophene-based coumarin-3-aldehyde derivative (1 μM) in buffer (25 mM HEPES, 50 mM Na2S2O3, pH=5.0) was prepared. Each solution contained 1% (v/v) DMSO as a cosolvent except as noted. The slit width was 2 nm for both excitation and emission. The bound benzene- and thiophene-coumarin-3-aldehyde derivatives contained 500 mM glutamate (pH=5.0).

For data set [6], the system named is norepinephrine-enriched chromaffin cells. As to the kind of experiment: Live-cell confocal imaging with NS539, norepinephrine-enriched cells. The class given is cell-based, bovine. The conditions noted are these: 10 μM. The procedure:
(§3) Norepinephrine- and epinephrine-secreting chromaffin cells were isolated from bovine adrenal glands, separately incubated with NS539 (2b, 10 μM), and imaged using confocal fluorescence microscopy. The live cells were imaged at 458 nm which would excite any potential unbound sensor and at 514 nm which would excite the bound sensor. […] The ratio of the mean corrected total cell fluorescence intensity of norepinephrine- over epinephrine-enriched cells was approximately 27-fold (FIG. 19G).
(§4) Chromaffin cells were prepared as previously described. Approximately 3 mL of each culture media containing suspended epinephrine- and norepinephrine-enriched cells was centrifuged at 1,000 rpm for 5 min. The pellets were suspended in 2 mL Dulbecco's Modified Eagle Medium (DMEM). NS539 was added (10 μM final concentration) and each cell suspension containing sensor incubated at 37° C. for 30 min. The cells were centrifuged, the supernatant removed, and washed twice with PBS buffer. Next, the cells were taken up into 6 mL standard cell bath solution and plated onto No. 1.5 γ-irradiated poly-D-lysine coated 35 mm glass-bottom dishes (MatTek Corporation). The cells incubated on the dishes 37° C. with 5% CO2 for 1 hr prior to imaging to promote adhesion. Live cell imaging studies were performed using a Zeiss LSM 510 META laser scanning confocal microscope (Carl Zeiss Microscopy, LLC) equipped with a C-Apochromat 63x/1.2 water immersion objective lens (Carl Zeiss Microscopy, LLC). The excitation wavelengths were 458 nm and 514 nm (pixel time: 6.4 μs, detector gain: 845, amplifier gain: 1.00, amplifier offset: −0.05, pinhole: 328 μm). Image acquisition was performed using Zeiss AIM 4.2 software package (Carl Zeiss Microscopy, LLC). To compare the fluorescence intensities of the norepinephrine- vs. the epinephrine-enriched cells, the mean corrected total cell fluorescence intensities were obtained using ImageJ (National Institute of Health).

The test system of data set [7] is epinephrine-enriched chromaffin cells. As to the kind of experiment: Live-cell confocal imaging with NS539, epinephrine-enriched cells. It counts as cell-based, bovine. The conditions noted are these: 10 μM. The procedure: as §3, §4
The conditions of data set [8]: 1.0 μM in water (pH 7); fluorescence standard; cited from earlier work.
Setting [9] is: benzene-based compounds I, excited at 488 nm.
[10] abbreviates: excitation at 514 nm (bound sensor).
Where [11] appears, read: ± standard deviation (n=6), 535-590 nm bandpass filter.
The mark [12] stands for this setting: thiophene-based compounds II, excited at 515 nm.

As for `CCN(CC)c1ccc2c(CCCCCN(C)Cc3ccccc3B(O)O)c(C=O)c(=O)oc2c1` ['120 sensor], the “mode of fluorescence response” value in data set [1] is recorded as “turn-off mode”.
In the case of `CCN(CC)c1ccc2c(-c3ccccc3)c(C=O)c(=O)oc2c1` [Compound I-1], the F.E. was determined as 6.62 in data set [2] (setting [9]), 3.23 in data set [3] (setting [9]) and 10.45 in data set [4] (setting [9]). For the same molecule, the Ka in data set [2] (setting [9]) is 68.68 M⁻¹; in data set [3] (setting [9]), 68.07 M⁻¹; in data set [4] (setting [9]), 9.43 M⁻¹.
Take `CCN(CC)c1ccc2c(-c3ccc(OC)c(OC)c3)c(C=O)c(=O)oc2c1` [Compound I-3]: the F.E. in data set [2] (setting [9]) is recorded as 4.11; in data set [3] (setting [9]) it was 2.69; in data set [4] (setting [9]), 6.56. Further, the results for the Ka in data set [2] (setting [9]), in data set [3] (setting [9]) and in data set [4] (setting [9]) were 107.17 M⁻¹, 177.46 M⁻¹ and 10.21 M⁻¹, respectively.
As for `CCN(CC)c1ccc2c(-c3cc(OC)c(OC)c(OC)c3)c(C=O)c(=O)oc2c1` [Compound I-4], the F.E. in data set [2] (setting [9]) was found to be 2.56; in data set [3] (setting [9]), 1.62; in data set [4] (setting [9]) it was 5.57. In addition, the Ka in data set [2] (setting [9]) was 159.08 M⁻¹; in data set [3] (setting [9]) it was 205.13 M⁻¹; in data set [4] (setting [9]), 10.25 M⁻¹. Besides, the “selectivity of fluorescent response for glutamate over dopamine and norepinephrine” value in data set [4] (series 1 sensors, in words) is on record as “best glutamate-selective sensor”.
Regarding `CCN(CC)c1ccc2c(-c3cccc(C)c3)c(C=O)c(=O)oc2c1` [Compound I-5], the F.E. in data set [2] (setting [9]) came out at 6.59; in data set [3] (setting [9]) it was 3.17; in data set [4] (setting [9]), 9.97. Also, the Ka is 68.40 M⁻¹ in data set [2] (setting [9]), 74.13 M⁻¹ in data set [3] (setting [9]) and 9.17 M⁻¹ in data set [4] (setting [9]).
Turning to `CCN(CC)c1ccc2c(-c3ccc(OC)c(C)c3)c(C=O)c(=O)oc2c1` [Compound I-6], the F.E. in data set [2] (setting [9]) is 3.89; in data set [3] (setting [9]), 2.41; in data set [4] (setting [9]), 6.36. Moreover, the Ka was determined as 135.98 M⁻¹ in data set [2] (setting [9]), 192.05 M⁻¹ in data set [3] (setting [9]) and 10.25 M⁻¹ in data set [4] (setting [9]).
Turning to `CCOC(=O)c1ccc(-c2c(C=O)c(=O)oc3cc(N(CC)CC)ccc23)cc1` [Compound I-7], the solubility in buffer entry in data set [5] is “solubility issues”. The F.E. in data set [2] (setting [9]) is given as 1.79; in data set [3] (setting [9]) it was 1.13; in data set [4] (setting [9]) it was 4.68. The values for the Ka in data set [2] (setting [9]), in data set [3] (setting [9]) and in data set [4] (setting [9]) were 81.50 M⁻¹, 107.45 M⁻¹ and 6.95 M⁻¹, respectively.
For `CCN(CC)c1ccc2c(-c3ccc(OC)c(F)c3)c(C=O)c(=O)oc2c1` [Compound I-8], the F.E. was determined as 6.36 in data set [2] (setting [9]), 3.06 in data set [3] (setting [9]) and 9.31 in data set [4] (setting [9]). Besides, the Ka turned out to be 70.18 M⁻¹ in data set [2] (setting [9]), 92.94 M⁻¹ in data set [3] (setting [9]) and 8.96 M⁻¹ in data set [4] (setting [9]).
For `CCN(CC)c1ccc2c(-c3ccc(-c4ccccc4)cc3)c(C=O)c(=O)oc2c1` [Compound I-9], the solubility in buffer entry in data set [5] is “solubility issues”. The F.E. in data set [2] (setting [9]) came out at 2.57; in data set [3] (setting [9]), 1.62; in data set [4] (setting [9]), 6.22. The figures for the Ka in data set [2] (setting [9]), in data set [3] (setting [9]) and in data set [4] (setting [9]) were 148.79 M⁻¹, 203.29 M⁻¹ and 13.84 M⁻¹, respectively.
In the case of `CCN(CC)c1ccc2c(-c3cccc4ccccc34)c(C=O)c(=O)oc2c1` [Compound I-10], the F.E. was found to be 4.30 in data set [2] (setting [9]), 2.86 in data set [3] (setting [9]) and 6.81 in data set [4] (setting [9]). In addition, the figures for the Ka in data set [2] (setting [9]), in data set [3] (setting [9]) and in data set [4] (setting [9]) were 103.56 M⁻¹, 170.10 M⁻¹ and 10.08 M⁻¹, respectively.
With `CCN(CC)c1ccc2c(-c3ccc(SC)cc3)c(C=O)c(=O)oc2c1` [Compound I-11], the values for the F.E. in data set [2] (setting [9]), in data set [3] (setting [9]) and in data set [4] (setting [9]) were 6.46, 3.10 and 9.76, respectively. Also, the Ka came to 68.82 M⁻¹ in data set [2] (setting [9]), 87.11 M⁻¹ in data set [3] (setting [9]) and 8.40 M⁻¹ in data set [4] (setting [9]).
On to `CCN(CC)c1ccc2c(-c3cccs3)c(C=O)c(=O)oc2c1` [II-1], for which, in data set [6], the “ratio of mean corrected total cell fluorescence intensity of norepinephrine- over epinephrine-enriched cells” value is “approximately 27 fold”. Moreover, the “cell fluorescence, confocal microscopy” value in data set [6] (setting [10]) was “strong punctate fluorescence”; in data set [6] (λex = 458 nm (unbound sensor)), “no measurable fluorescence response”; in data set [7] (excitation at 458 nm (unbound sensor)) it was “no fluorescence”; in data set [7] (setting [10]) it was “marginal fluorescence response”. Moreover, the “mean corrected total cell fluorescence intensity” value is reported as 51.0±2.6 in data set [6] (setting [11]) and 1.86±0.98 in data set [7] (setting [11]). Besides, the F.E. in data set [2] (setting [12]) worked out at 47.95; in data set [3] (setting [12]), 25.42; in data set [4] (setting [12]), 57.17. The Ka in data set [2] (setting [12]) worked out at 65.15 M⁻¹; in data set [3] (setting [12]), 43.55 M⁻¹; in data set [4] (setting [12]) it was 7.32 M⁻¹.
As for `CCN(CC)c1ccc2c(-c3ccc(C)s3)c(C=O)c(=O)oc2c1` [II-2], the F.E. is 32.35 in data set [2] (setting [12]), 22.18 in data set [3] (setting [12]) and 47.67 in data set [4] (setting [12]). The Ka amounted to 58.72 M⁻¹ in data set [2] (setting [12]), 54.61 M⁻¹ in data set [3] (setting [12]) and 6.11 M⁻¹ in data set [4] (setting [12]).
As for `CCN(CC)c1ccc2c(-c3cc(C)cs3)c(C=O)c(=O)oc2c1` [II-3], the values for the F.E. in data set [2] (setting [12]), in data set [3] (setting [12]) and in data set [4] (setting [12]) were 38.35, 23.41 and 51.15, respectively. The Ka in data set [2] (setting [12]) was 63.65 M⁻¹; in data set [3] (setting [12]), 51.10 M⁻¹; in data set [4] (setting [12]), 7.40 M⁻¹.
`CCN(CC)c1ccc2c(-c3ccc(Cl)s3)c(C=O)c(=O)oc2c1` [II-4]: the F.E. in data set [2] (setting [12]) was found to be 20.78; in data set [3] (setting [12]) it was 12.39; in data set [4] (setting [12]), 33.96. In addition, the values for the Ka in data set [2] (setting [12]), in data set [3] (setting [12]) and in data set [4] (setting [12]) were 69.25 M⁻¹, 83.96 M⁻¹ and 5.90 M⁻¹, respectively.
For the molecule `CCN(CC)c1ccc2c(-c3cc4ccccc4s3)c(C=O)c(=O)oc2c1` [II-5], the results for the F.E. in data set [2] (setting [12]), in data set [3] (setting [12]) and in data set [4] (setting [12]) were 16.62, 9.53 and 29.65, respectively. Moreover, the Ka is 49.65 M⁻¹ in data set [2] (setting [12]), 49.26 M⁻¹ in data set [3] (setting [12]) and 5.25 M⁻¹ in data set [4] (setting [12]).
For the molecule `CCN(CC)c1ccc2c(-c3ccccc3C(=O)O)c3ccc(=[N+](CC)CC)cc-3oc2c1.[Cl-]` [rhodamine B], in data set [8], the “absolute Φfl” value is 0.31.
